Experimental data from paper PMC7663979, “Design of Novel 4-Aminobenzofuroxans and Evaluation of Their Antimicrobial and Anticancer Activity” (International Journal of Molecular Sciences, 2020).
Where “and” joins values, the source holds several entries; their conditions need not be identical. Equal values may be shown once.

Key:
[1] = test system: Microdochium nivale isolate 1; assay: Fungistatic activity, agar growth medium poison technique, isolate 1; assay type: cell-based; conditions: 1 mM in PSA; for inhibition at 1000 µM: Microdochium nivale; for inhibition at 1000 µM / growth inhibition: 20 °C
Description: (§1) Fungistatic activity of the tested compounds was assessed in vitro using agar growth medium poison technique. The target compounds as well as widely used fungicides benzimidazole and carbendazim were dissolved to 10 mM concentration in 20% Tween 20. The obtained solutions were added 1:9 v/v (giving 1 mM-concentrations of the target compounds) to potato-sucrose agar (PSA) at 60 °C, mixed thoroughly and transferred to Petri dishes. For the control variants, PSA was supplemented with 20% Tween 20 (9:1). Fungistatic effect was tested against two isolates of Microdochium nivale causing snow mold disease of winter cereals (rye) from the culture collection of FRC Kazan Scientific Center of RAS. […] The center of each solidified medium was inoculated upside-down with 5-mm diameter mycelial plug cut from the periphery of 10-day-old cultures. The tested dishes were incubated at 20 °C. The percentage growth inhibition was calculated using Abbott’s formula (1):%Inhibition = [(A − B) ÷ A] × 100(1) where ‘A’ is mycelia growth in the control conditions and ‘B’ is mycelia growth in the treatment conditions. The assay was performed at least in triplicate. Linear growth of each colony was determined during 6 days.

[2] = test system: Microdochium nivale isolate 21; assay: Fungistatic activity, agar growth medium poison technique, isolate 21; assay type: cell-based; conditions: 1 mM in PSA; for inhibition at 1000 µM: Microdochium nivale
Description: as §1

[3] = test system: M-HeLa; assay: Cytotoxicity assay (Cytell Cell Viability BioApp), M-HeLa; assay type: cell-based, human; conditions: for IC50: Homo sapiens, M-HeLa, mean ± SD, three experiments; for SI M-HeLa: selectivity index = IC50 normal cells (Chang liver) / IC50 cancer cells, n.s. = no selectivity
[4] = test system: MCF7; assay: Cytotoxicity assay (Cytell Cell Viability BioApp), MCF7; assay type: cell-based, human; conditions: for IC50: Homo sapiens, MCF7, mean ± SD, three experiments; for SI MCF7: selectivity index = IC50 normal cells (Chang liver) / IC50 cancer cells, n.s. = no selectivity
[5] = test system: PANC-1; assay: Cytotoxicity assay (Cytell Cell Viability BioApp), PANC-1; assay type: cell-based, human; conditions: for IC50: Homo sapiens, PANC-1, mean ± SD, three experiments; for SI PANC-1: selectivity index = IC50 normal cells (Chang liver) / IC50 cancer cells, n.s. = no selectivity
[6] = test system: T98G; assay: cells; assay type: cell-based, human; conditions: for IC50: Homo sapiens, T98G, read-out: IC50 T98G; for SI T98G: selectivity index = IC50 normal cells (Chang liver) / IC50 cancer cells, n.s. = no selectivity
[7] = test system: Chang Liver; assay: Cytotoxicity assay (Cytell Cell Viability BioApp), normal Chang liver cells; assay type: cell-based; conditions: Homo sapiens, mean ± SD, three experiments, read-out: IC50 Chang Liver (normal cell line)
[8] = test system: M-HeLa cells; assay: Cell apoptosis analysis by flow cytometry (annexin V-Alexa Fluor 647 / propidium iodide); assay type: cell-based, human; conditions: 24 h
Description: (§2) Cell Culture. M-HeLa cells at 10^6 cells/ well in a final volume of 2 mL were seeded into 6-well plates. After 24 h of incubation, various concentrations of compounds 3c and 3f were added to wells.
Cell Apoptosis Analysis. The cells were harvested at 2000 rpm for 5 min and, then, washed twice with ice-cold PBS, followed by resuspension in binding buffer 100 μL. Next, the samples were incubated with 0.35 μL of annexin V-Alexa Fluor 647 and 0.1 μL of propidium iodide for 40 min at room temperature in the dark. Finally, the cells were analyzed by flow cytometry (Guava easyCyte, MERCK, Kenilworth, NJ, USA). The experiments were repeated three times.

[9] = test system: M-HeLa cells; assay: Cell cycle analysis, propidium iodide, flow cytometry; assay type: cell-based, human; conditions: 24 h, control cells 34.28%
Description: as §2
The DNA content and cell-cycle distribution after […] were estimated by flow cytometry. Cell seeding, drug treatment and ethanol fixation were similar to cell proliferation assay. After washing with PBS, […] were suspended in 150 μL of PBS, then 0.5 mL phosphate-citrate buffer (0.05 M, pH = 4.0) was added and the suspension was incubated at room temperature for 5 min to facilitate the extraction of low molecular weight DNA. Following centrifugation the cells were resuspended in 150 μL DNA staining solution (20 μg/mL propidium iodide, 200 μg/mL […], and 0.1% Triton X-100) and incubated in the CO2 incubator (37 °C for 30 min). Cell cycle distribution was determined by fluorescence-activated cell sorting analysis of propidium iodide-stained ethanol-fixed cells using a Guava EasyCyte (Guava easyCyte, MERCK, Kenilworth, NJ, USA).

Row | SMILES | IC50 [3] | SI M-HeLa [3] | IC50 [4] | SI MCF7 [4] | IC50 [5] | SI PANC-1 [5] | IC50 [6] | SI T98G [6] | IC50 [7] | other results
1 | O=[N+]([O-])c1c(Cl)cc2c(no[n+]2[O-])c1Cl [4,6-dichloro-5-nitrobenzofuroxan, reference compound] |  |  |  |  |  |  |  |  |  | fungistatic activity (result in words) [1]: not effective; fungistatic activity (result in words) [2]: not effective
2 | O=[N+]([O-])c1c(Cl)cc2c(no[n+]2[O-])c1Nc1ccc(F)cc1 [Compound 3a, 6-chloro-4-((4-fluorophenyl)amino)-5-nitrobenzofuroxan] | 45.9 ± 3.7 µM | 2.0 | > 100 µM | n.s. | > 100 µM | n.s | 28.3 ± 2.3 µM | 3.3 | 93.8 ± 8.3 µM | 
3 | O=[N+]([O-])c1c(Cl)cc2c(no[n+]2[O-])c1Nc1ccc(Cl)cc1 [Compound 3b, 6-chloro-4-((4-chlorophenyl)amino)-5-nitrobenzofuroxan] | 60.6 ± 4.7 µM | 1.0 | 69.2 ± 5.7 µM | n.s. | 82.7 ± 7.3 µM | n.s | 12.7 ± 1.1 µM | 5.0 | 62.7 ± 5.5 µM | inhibition at 1000 µM ([1]; fifth day of incubation): > 40%; inhibition at 1000 µM ([1]; sixth day of incubation): > 25%; inhibition at 1000 µM ([2]; fifth day of incubation, 20 °C): > 40%; inhibition at 1000 µM ([2]; sixth day of incubation, 20 °C): > 25%
4 | O=[N+]([O-])c1c(Cl)cc2c(no[n+]2[O-])c1Nc1ccc(Br)cc1 [Compound 3c, 4-((4-bromophenyl)amino)-6-chloro-5-nitrobenzofuroxan] | 4.8 ± 0.4 µM | 12.8 | 3.7 ± 0.2 µM | 16.6 | 59.2 ± 4.6 µM | 1.0 | 20.4 ± 1.7 µM | 3 | 61.3 ± 5.1 µM | inhibition at 1000 µM ([1]; fifth day of incubation): > 40%; inhibition at 1000 µM ([1]; sixth day of incubation): > 25%; inhibition at 1000 µM ([2]; fifth day of incubation, 20 °C): > 40%; inhibition at 1000 µM ([2]; sixth day of incubation, 20 °C): > 25%; D—dead cells ([8]; 5 μM): 3.92%; Ea—early apoptotic cells ([8]; 5 μM): 6.67%; La—late apoptotic cells ([8]; 5 μM): 8.63%; L—living cells ([8]; 5 μM): 80.78%; D—dead cells ([8]; 10 μM): 6.16%; Ea—early apoptotic cells ([8]; 10 μM): 17.33%; La—late apoptotic cells ([8]; 10 μM): 15.69%; L—living cells ([8]; 10 μM): 60.82%; cells in G0/G1 phase (G1) ([9]; 5 μM): 62.9% and 62.91%; cells in G0/G1 phase (G1) ([9]; 10 μM): 70.1% and 70.06%
5 | N#Cc1ccc(Nc2c([N+](=O)[O-])c(Cl)cc3c2no[n+]3[O-])cc1 [Compound 3d, 6-chloro-4-((4-cyanophenyl)amino)-5-nitrobenzofuroxan] | 16.6 ± 1.4 µM | >6 | 67.9 ± 5.7 µM | >1.5 | 61.3 ± 5.1 µM | >1.6 | 14.7 ± 1.2 µM | >6.8 | > 100 µM | 
6 | COc1ccccc1Nc1c([N+](=O)[O-])c(Cl)cc2c1no[n+]2[O-] [Compound 3e, 6-chloro-4-((2-methoxyphenyl)amino)-5-nitrobenzofuroxan] | 62.7 ± 5.4 µM | 1.0 | 79.5 ± 6.4 µM | n.s. | 50 ± 4.1 µM | 1.3 | 21.5 ± 1.8 µM | 3.0 | 62.7 ± 5.6 µM | fungistatic activity (result in words) [1]: inefficient; fungistatic activity (result in words) [2]: one of the most pronounced inhibitory effects
7 | CCCCNc1c([N+](=O)[O-])c(Cl)cc2c1no[n+]2[O-] [Compound 5a, 4-(butylamino)-6-chloro-5-nitrobenzofuroxan] | 56.5 ± 4.5 µM | 1.8 | > 100 µM | n.s. | > 100 µM | n.s. | 22.7 ± 1.9 µM | 4.4 | 100 µM | fungistatic activity (result in words) [1]: one of the most effective; growth inhibition ([2]; sixth day of incubation, 20 °C): did not cause any inhibition; inhibition at 1000 µM ([2]; fifth day of incubation, 20 °C): 10%
8 | CCCCCCNc1c([N+](=O)[O-])c(Cl)cc2c1no[n+]2[O-] [Compound 5b, 6-chloro-4-(hexylamino)-5-nitrobenzofuroxan] | 60.8 ± 4.8 µM | >1.6 | > 100 µM | n.s. | 50 ± 3.9 µM | >2 | 65 ± 5.8 µM | >1.5 | > 100 µM | 
9 | O=[N+]([O-])c1c(Cl)cc2c(no[n+]2[O-])c1NC1CCCCC1 [Compound 5d, 6-chloro-4-(cyclohexylamino)-5-nitrobenzofuroxan] | 61 ± 5.2 µM | 1.1 | 79.1 ± 6.2 µM | n.s. | > 100 µM | n.s. | 31.6 ± 2.5 µM | 2.1 | 67.1 ± 5.7 µM | 
10 | O=[N+]([O-])c1c(Cl)cc2c(no[n+]2[O-])c1NN1CCOCC1 [Compound 5e, 6-chloro-4-(morpholinoamino)-5-nitrobenzofuroxan] | 61.6 ± 5.2 µM | 1.1 | > 100 µM | n.s. | > 100 µM | n.s. | 57.1 ± 4.3 µM | 1.1 | 65.2 ± 5.8 µM | 
11 | CN(Cc1ccccc1)c1c([N+](=O)[O-])c(Cl)cc2c1no[n+]2[O-] [Compound 5f, 4-(benzyl(methyl)amino)-6-chloro-5-nitrobenzofuroxan] | 62.2 ± 5.6 µM | >1.6 | > 100 µM | n.s. | > 100 µM | n.s. | > 100 µM | n.s. | > 100 µM | inhibition at 1000 µM ([1]; fifth day of incubation): < 20%; inhibition at 1000 µM ([1]; sixth day of incubation): < 10%; inhibition at 1000 µM ([2]; fifth day of incubation, 20 °C): < 20%; inhibition at 1000 µM ([2]; sixth day of incubation, 20 °C): < 10%
12 | COc1cccc2c1C(=O)c1c(O)c3c(c(O)c1C2=O)C[C@@](O)(C(=O)CO)C[C@@H]3O[C@H]1C[C@H](N)[C@H](O)[C@H](C)O1 [Doxorubicin, reference compound] | 3 ± 0.1 µM | 1.0 | 3 ± 0.2 µM | 1.0 | 3.3 ± 0.1 µM | 1.0 | 6.8 ± 0.5 µM | n.s. | 3 ± 0.2 µM | 
13 | c1ccc2[nH]cnc2c1 [benzimidazole, reference compound] |  |  |  |  |  |  |  |  |  | growth inhibition ([1]; fifth day of incubation): null inhibitory effect
14 | COC(=O)Nc1nc2ccccc2[nH]1 [carbendazim, methyl-2-benzimidazole carbamate, reference compound] |  |  |  |  |  |  |  |  |  | growth inhibition ([1]; fifth day of incubation): null inhibitory effect; inhibition at 1000 µM ([2]; sixth day of incubation, 20 °C): 100%
